The results in this text go back to patent publication US7960436B2, “Substituted arylamino-1,2,3,4-tetrahydro naphthalenes and-2,3-dihydro-1H-indenes as potassium channel modulators” (Valeant Pharmaceuticals International, priority 2006, dated 2011).

pEC50: −log10 of the molar value. A value given as a limit tells only on which side of the number the result lay.

For this test, the system named is potassium ion channels. Put plainly: Rubidium (Rb+) efflux assay in NGF-differentiated PC-12 cells. In kind it is cell-based. The note with it: depolarization buffer with 15 mM KCl, 10 min at room temperature, read-out: EC50 (compound's concentration for 50% of maximal Rb+ efflux). As for the experimental part: Several typical compounds of this invention were assayed as potassium channel modulators by measuring rhubidium release.
Methods: PC-12 cells were grown at 37° C. and 5% CO2 in DMEM/F12 Medium supplemented with 10% horse serum, 5% fetal bovine serum, 2 mM glutamine, 100 U/ml penicillin, 100 U/ml streptomycin. They were plated in poly-D-lysine-coated 96-well cell culture microplates at a density of 40,000 cells/well and differentiated with 100 ng/ml NGF-7s for 2-5 days. For the assay, the medium was aspirated and the cells were washed once with 0.2 ml in wash buffer (25 mM HEPES, pH 7.4, 150 mM NaCl, 1 mM MgCl2, 0.8 mM NaH2PO4, 2 mM CaCl2). The cells were then loaded with 0.2 ml Rb^+ loading buffer (wash buffer plus 5.4 mM […], 5 mM glucose) and incubated at 37° C. for 2 h. Attached cells were quickly washed three times with buffer (same as Rb^+ loading buffer, but containing 5.4 mM KCl instead of RbCl) to remove extracellular Rb^+. Immediately following the wash, 0.2 ml of depolarization buffer (wash buffer plus 15 mM KCl) with or without compounds was added to the cells to activate efflux of potassium ion channels. After incubation for 10 min at room temperature, the supernatant was carefully removed and collected. Cells were lysed by the addition of 0.2 ml of lysis buffer (depolarization buffer plus 0.1% Triton X-100) and the cell lysates were also collected. If collected samples were not immediately analyzed for Rb^+ contents by atomic absorption spectroscopy (see below), they were stored at 4° C. without any negative effects on subsequent Rb^+ analysis.
The concentration of Rb^+ in the supernatants (Rb^+Sup) and cell lysates (Rb^+Lys) was quantified using an ICR8000 flame atomic absorption spectrometer (Aurora Biomed Inc., Vancouver, B.C.) under conditions defined by the manufacturer. One 0.05 ml samples were processed automatically from microtiter plates by dilution with an equal volume of Rb^+ sample analysis buffer and injection into an air-acetylene flame. The amount of Rb^+ in the sample was measured by absorption at 780 nm using a hollow cathode lamp as light source and a PMT detector. A calibration curve covering the range 0-5 mg/L Rb^+ in sample analysis buffer was generated with each set of plates. The percent Rb^+ efflux (F) was defined by F=[Rb^+Sup/(Rb^+Sup+Rb^+Lys)]×100% The effect (E) of a compound was defined by: E=[(Fc−Fb)/(Fs−Fb)]×100% where the Fc is the efflux in the presence of compound in depolarization buffer, Fb is the efflux in basal buffer, and Fs is the efflux in depolarization buffer, and. The effect (E) and compound concentration relationship was plotted to calculate an EC50 value, a compound's concentration for 50% of maximal Rb^+ efflux.
For the molecule `CC(C)(C)CC(=O)Nc1cc2c(cc1N)C(Nc1ccc(C(F)(F)F)cc1)CC2` (stereo not shown), the pEC50 was greater than 6.30.

As for `CC(C)(C)CC(=O)Nc1cc2c(cc1N)C(Nc1ccc(F)cc1)CC2` (stereo not shown), the pEC50 was 5.30 to 6.30.

In the case of `Nc1cc2c(cc1NC(=O)CCC1CCCC1)CCC2Nc1ccc(C(F)(F)F)cc1` (stereo not shown), the pEC50 was greater than 6.30.

For the molecule `CCOC(=O)Nc1ccc2c(c1N)CCC2Nc1ccc(F)cc1` (stereo not shown), the pEC50 is 5.30 to 6.30.

Take `CCOC(=O)Nc1ccc2c(c1N)CCCC2Nc1ccc(C(F)(F)F)cc1` (stereo not shown): the pEC50 was less than 5.30.

Consider `Nc1cc2c(cc1NC(=O)CCC1CCCC1)CCC2Nc1ccc(F)cc1` (stereo not shown), for which the pEC50 was greater than 6.30.

`CCOC(=O)Nc1cc2c(cc1N)C(Nc1ccc(C(F)(F)F)cc1)CCC2` (stereo not shown): the pEC50 is less than 5.30.
